Laboratory results as given in ChEMBL document CHEMBL1201862, “PubChem BioAssay data set” (2004).
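Five concentrations, 48 hours, 96-well plates. GI50 marks 50% less growth.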 Activity calls are given as the source filed them. No stated cut-off is given here; in the data, active = GI50 up to about 1.1 µM and inactive = higher. Numbered stars: 1 amine (or outer) side, 2 acyl side, 3 side chain; on linkers, the order of the positions; unused ones are H or OH. Bridge positions count the residues as written; N and C are the ends. Square brackets hold non-standard residues; d marks the D form. Peptide text beside a SMILES is read from it. X58 = COc1c(N[*:1])cccc1C(=O)O[C@H](C(=O)[C@H](C)C(=O)[*:2])C(C)C; X57 = CC(C)C[C@H](C(=O)[*:2])C(C)C(=O)C1CCCN1[*:1]; NMeY = CN[C@@H](Cc1ccc(O)cc1)C(=O)O; Lac = C[C@H](O)C(=O)O

How the values were obtained:
Assay in all cases: NCI anticancer screen, dose series, 48 h
A549 = test system: A549
HL-60 = test system: HL-60
HOP-62 = test system: HOP-62
LOX IMVI = test system: LOX IMVI
MDA-MB-435 = test system: MDA-MB-435
NCI-H226 = test system: NCI-H226
NCI-H522 = test system: NCI-H522
OVCAR-3 = test system: OVCAR-3
OVCAR-4 = test system: OVCAR-4
OVCAR-5 = test system: OVCAR-5
PC-3 = test system: PC-3
RXF 393 = test system: RXF 393
SNB-19 = test system: SNB-19
SR = test system: SR
SW-620 = test system: SW-620
T47D = test system: T47D
UACC-257 = test system: UACC-257
UACC-62 = test system: UACC-62
UO-31 = test system: UO-31
HCC 2998 = test system: HCC 2998

O=C(O)/C=C(/C(=O)O)C12CCN3CC4=CCOC5CC(=O)NC1C5C4CC32 (stereo unspecified)
GI50 (A549): > 100 µM (inactive) | GI50 (HL-60): > 100 µM (inactive) | GI50 (HOP-62): > 100 µM (inactive) | GI50 (LOX IMVI): > 100 µM (inactive) | GI50 (MDA-MB-435): > 100 µM (inactive) | GI50 (NCI-H226): > 100 µM (inactive) | GI50 (NCI-H522): > 100 µM (inactive) | GI50 (OVCAR-3): > 100 µM (inactive) | GI50 (OVCAR-4): > 100 µM (inactive) | GI50 (OVCAR-5): > 100 µM (inactive) | GI50 (PC-3): > 100 µM (inactive) | GI50 (RXF 393): > 100 µM (inactive) | GI50 (SNB-19): > 100 µM (inactive) | GI50 (SR): > 100 µM (inactive) | GI50 (SW-620): > 100 µM (inactive) | GI50 (T47D): > 100 µM (inactive) | GI50 (UACC-257): > 100 µM (inactive) | GI50 (UACC-62): > 100 µM (inactive) | GI50 (UO-31): > 100 µM (inactive)

COc1cc(C)cc2c(-c3c(O)cc(O)c4c3C[C@H](C)N[C@H]4C)cc(-c3cc(-c4c(O)cc(O)c5c4C[C@H](C)N[C@H]5C)c4cc(C)cc(OC)c4c3O)c(O)c12
GI50 (A549): > 100 µM (inactive) | GI50 (HCC 2998): > 100 µM (inactive) | GI50 (HL-60): > 100 µM (inactive) | GI50 (HOP-62): 72.3 µM (inactive) | GI50 (MDA-MB-435): 54.3 µM (inactive) | GI50 (NCI-H226): > 100 µM (inactive) | GI50 (NCI-H522): > 100 µM (inactive) | GI50 (OVCAR-3): > 100 µM (inactive) | GI50 (OVCAR-4): > 100 µM (inactive) | GI50 (OVCAR-5): 21.4 µM (inactive) | GI50 (PC-3): > 100 µM (inactive) | GI50 (RXF 393): > 100 µM (inactive) | GI50 (SNB-19): > 100 µM (inactive) | GI50 (SR): > 100 µM (inactive) | GI50 (SW-620): > 100 µM (inactive) | GI50 (T47D): 63.8 µM (inactive) | GI50 (UACC-257): > 100 µM (inactive) | GI50 (UACC-62): > 100 µM (inactive) | GI50 (UO-31): > 100 µM (inactive)

N#Cc1c(N)c2c(c(-c3ccccc3)c1-c1ccccc1)C(=O)N(NC(=O)c1ccccc1)C2=O
GI50 (A549): > 100 µM (inactive) | GI50 (HCC 2998): > 100 µM (inactive) | GI50 (HL-60): 58.2 µM (inactive) | GI50 (LOX IMVI): > 100 µM (inactive) | GI50 (MDA-MB-435): 74.3 µM (inactive) | GI50 (NCI-H226): > 100 µM (inactive) | GI50 (NCI-H522): 81.7 µM (inactive) | GI50 (OVCAR-3): 31 µM (inactive) | GI50 (OVCAR-4): > 100 µM (inactive) | GI50 (OVCAR-5): > 100 µM (inactive) | GI50 (PC-3): 65.2 µM (inactive) | GI50 (RXF 393): 60 µM (inactive) | GI50 (SNB-19): 58.5 µM (inactive) | GI50 (SR): 44.5 µM (inactive) | GI50 (SW-620): > 100 µM (inactive) | GI50 (T47D): 32.1 µM (inactive) | GI50 (UACC-257): > 100 µM (inactive) | GI50 (UACC-62): 75.9 µM (inactive) | GI50 (UO-31): 41.9 µM (inactive)

CCCCCC(=O)NC(=S)Nc1nnn[nH]1
GI50 (A549): > 100 µM (inactive) | GI50 (HCC 2998): > 100 µM (inactive) | GI50 (HL-60): > 100 µM (inactive) | GI50 (HOP-62): > 100 µM (inactive) | GI50 (LOX IMVI): > 100 µM (inactive) | GI50 (MDA-MB-435): > 100 µM (inactive) | GI50 (NCI-H522): > 100 µM (inactive) | GI50 (OVCAR-3): > 100 µM (inactive) | GI50 (OVCAR-4): > 100 µM (inactive) | GI50 (OVCAR-5): > 100 µM (inactive) | GI50 (PC-3): > 100 µM (inactive) | GI50 (RXF 393): > 100 µM (inactive) | GI50 (SNB-19): > 100 µM (inactive) | GI50 (SR): > 100 µM (inactive) | GI50 (SW-620): > 100 µM (inactive) | GI50 (T47D): > 100 µM (inactive) | GI50 (UACC-257): > 100 µM (inactive) | GI50 (UACC-62): > 100 µM (inactive) | GI50 (UO-31): > 100 µM (inactive)

COC(=O)/C=C/c1ccc2c(c1)CC1(C2)Cc2cc3c(cc2C1=O)CCC3 (stereo unspecified)
GI50 (A549): 40.3 µM (inactive) | GI50 (HCC 2998): > 100 µM (inactive) | GI50 (HL-60): 7.98 µM (inactive) | GI50 (LOX IMVI): > 100 µM (inactive) | GI50 (MDA-MB-435): > 100 µM (inactive) | GI50 (NCI-H226): 49.3 µM (inactive) | GI50 (NCI-H522): 31.1 µM (inactive) | GI50 (OVCAR-3): 4.63 µM (inactive) | GI50 (OVCAR-4): 43.2 µM (inactive) | GI50 (PC-3): 88.9 µM (inactive) | GI50 (RXF 393): 24.5 µM (inactive) | GI50 (SNB-19): 31.6 µM (inactive) | GI50 (SR): 44.1 µM (inactive) | GI50 (SW-620): > 100 µM (inactive) | GI50 (T47D): 11.1 µM (inactive) | GI50 (UACC-257): > 100 µM (inactive) | GI50 (UACC-62): > 100 µM (inactive) | GI50 (UO-31): 50.8 µM (inactive)

NC(=O)c1nnc2cc(F)c(F)cc2c1N
GI50 (A549): 90.2 µM (inactive) | GI50 (HCC 2998): > 100 µM (inactive) | GI50 (HL-60): > 100 µM (inactive) | GI50 (HOP-62): 18.5 µM (inactive) | GI50 (LOX IMVI): 57.3 µM (inactive) | GI50 (MDA-MB-435): 97.9 µM (inactive) | GI50 (NCI-H226): 11.9 µM (inactive) | GI50 (NCI-H522): 18.8 µM (inactive) | GI50 (OVCAR-3): > 100 µM (inactive) | GI50 (OVCAR-4): > 100 µM (inactive) | GI50 (OVCAR-5): 57.3 µM (inactive) | GI50 (PC-3): 95.1 µM (inactive) | GI50 (SNB-19): 30.8 µM (inactive) | GI50 (SR): > 100 µM (inactive) | GI50 (SW-620): > 100 µM (inactive) | GI50 (T47D): 40.7 µM (inactive) | GI50 (UACC-257): > 100 µM (inactive) | GI50 (UACC-62): 31.3 µM (inactive) | GI50 (UO-31): 22.1 µM (inactive)

CCOC(=O)c1c(SCCCN2CCCCC2)n(-c2ccccc2)c(=S)n(-c2ccccc2)c1=O
GI50 (A549): 17.3 µM (inactive) | GI50 (HCC 2998): 17.3 µM (inactive) | GI50 (HL-60): 2.62 µM (inactive) | GI50 (HOP-62): 33 µM (inactive) | GI50 (MDA-MB-435): 15.8 µM (inactive) | GI50 (NCI-H226): 15.6 µM (inactive) | GI50 (NCI-H522): 19.3 µM (inactive) | GI50 (OVCAR-3): 16.7 µM (inactive) | GI50 (OVCAR-4): 17.7 µM (inactive) | GI50 (OVCAR-5): 17.7 µM (inactive) | GI50 (PC-3): 16.4 µM (inactive) | GI50 (RXF 393): 18.3 µM (inactive) | GI50 (SNB-19): 16.7 µM (inactive) | GI50 (SR): 22 µM (inactive) | GI50 (SW-620): 17.7 µM (inactive) | GI50 (T47D): 16.7 µM (inactive) | GI50 (UACC-62): 4.28 µM (inactive) | GI50 (UO-31): 15.5 µM (inactive)

OB(O)c1ccccc1C#Cc1ccccc1B(O)O
GI50 (A549): 18.5 µM (inactive) | GI50 (HCC 2998): 17.7 µM (inactive) | GI50 (HL-60): 21.4 µM (inactive) | GI50 (HOP-62): 23.9 µM (inactive) | GI50 (LOX IMVI): 19 µM (inactive) | GI50 (MDA-MB-435): 19.7 µM (inactive) | GI50 (NCI-H522): 14.6 µM (inactive) | GI50 (OVCAR-3): 17.1 µM (inactive) | GI50 (OVCAR-5): 27.4 µM (inactive) | GI50 (PC-3): 22.1 µM (inactive) | GI50 (RXF 393): 11.3 µM (inactive) | GI50 (SNB-19): 21.8 µM (inactive) | GI50 (SR): 19.5 µM (inactive) | GI50 (SW-620): 20.1 µM (inactive) | GI50 (T47D): 2.98 µM (inactive) | GI50 (UACC-257): 0.55 µM (active) | GI50 (UACC-62): 14.5 µM (inactive) | GI50 (UO-31): 20.3 µM (inactive)

C/C=C1\CN2CCC34c5ccccc5N(C)C35OCC4(C(=O)OC)C1CC25 (stereo unspecified)
GI50 (A549): 61.4 µM (inactive) | GI50 (HCC 2998): 14 µM (inactive) | GI50 (HL-60): 15.2 µM (inactive) | GI50 (HOP-62): 65.8 µM (inactive) | GI50 (LOX IMVI): 14 µM (inactive) | GI50 (MDA-MB-435): 38.7 µM (inactive) | GI50 (NCI-H522): 47.8 µM (inactive) | GI50 (OVCAR-3): 76.2 µM (inactive) | GI50 (OVCAR-4): 51.2 µM (inactive) | GI50 (OVCAR-5): > 100 µM (inactive) | GI50 (PC-3): 27.9 µM (inactive) | GI50 (SNB-19): 59.8 µM (inactive) | GI50 (SR): 26.2 µM (inactive) | GI50 (SW-620): 41.6 µM (inactive) | GI50 (T47D): 28.8 µM (inactive) | GI50 (UACC-257): 32.4 µM (inactive) | GI50 (UACC-62): 61 µM (inactive) | GI50 (UO-31): 70.6 µM (inactive)

COc1ccc(C[C@H]2C(=O)O[C@H](C)[C@H](NC(=O)[C@@H](CC(C)C)C(C)C(=O)C3CCCN3C(=O)[C@H](C)O)C(=O)Nc3cccc(c3OC)C(=O)O[C@@H](C(C)C)C(=O)[C@H](C)C(=O)N[C@@H](CC(C)C)C(=O)N3CCC[C@H]3C(=O)N2C)cc1 (stereo partly specified) (H-[Lac][X57]T[X58]LP[NMeY](Me); ester 3-C)
GI50 (A549): 6.75 µM (inactive) | GI50 (HCC 2998): 3.82 µM (inactive) | GI50 (HOP-62): > 12.5 µM (inactive) | GI50 (LOX IMVI): 9.66 µM (inactive) | GI50 (MDA-MB-435): 4.93 µM (inactive) | GI50 (NCI-H226): 7.26 µM (inactive) | GI50 (NCI-H522): 9.82 µM (inactive) | GI50 (OVCAR-3): 7.38 µM (inactive) | GI50 (OVCAR-4): > 12.5 µM (inactive) | GI50 (OVCAR-5): > 12.5 µM (inactive) | GI50 (PC-3): 3.85 µM (inactive) | GI50 (RXF 393): > 12.5 µM (inactive) | GI50 (SNB-19): 11 µM (inactive) | GI50 (SR): 5.09 µM (inactive) | GI50 (SW-620): 9.29 µM (inactive) | GI50 (T47D): > 12.5 µM (inactive) | GI50 (UACC-257): > 12.5 µM (inactive) | GI50 (UACC-62): > 12.5 µM (inactive) | GI50 (UO-31): > 12.5 µM (inactive)
